{
  "source": "patent US9682928B2",
  "about": "(NeuroPro Therapeutics, Inc., priority 2009, dated 2017)",
  "key": {"Sprague-Dawley rats": {"test_system": "Sprague-Dawley rats", "assay": "Kainic acid induced seizures in rats", "type": "in vivo, rat", "parameters": "key to Seizures Severity Mean ± SD (grade 0 to IV): seizure grade 0 = no response to IV = status epilepticus", "conditions": "for change in vivo at 20 µmol/kg / change in vivo at 100 mg/kg: Rattus norvegicus, 2 h; for change in vivo at 100 mg/kg: ip; for Reduction in seizure score / severity: bumetanide 100 mg/kg i.p. (274 umoles/kg); for Reduction in seizure severity / seizure score / Reduction in seizures / seizure activity: kainic acid 15 mg/kg, rat, 20 μmoles/kg (bumetanide 7.3 mg/kg i.p.)", "experimental": "Formulation of kainic acid was performed by NTS as a stock solution by reconstituting kainic acid with (100%) saline that was stored at 4° C. Vehicle control received saline solution. […] The research investigators were blinded to the treatment groups.\nSolutions were prepared fresh daily just prior to use; dosing of all 10 rats with any given compound occurred on a single day after preparing the dosing solution. […] Unused remaining dosing solutions were stored frozen.\nAnimals were maintained in a temperature- and light-controlled environment in accord with the principles and procedures of the National Institutes of Health Guidelines for Care and Use of Laboratory Animals. Seizures were induced in adult, male Sprague-Dawley rats (260-300 g) by injection of KA (15 mg/kg, i.p.). In addition, animals were injected with test compounds following kainic acid to determine the effects on protection from epilepsy. Animals were monitored behaviorally for seizures for 2 hours after injection.\nSeizure activity was initially characterized as either yes (1) or no (0) within a 2 hour period following injection of KA. A seizure severity grade was assigned based on the maximal response achieved on a scale from 0 to IV as follows: 0, no response; I, single limb clonus and scratching; II, multiple limb clonus and staggering gait; […], limb clonus, tonic extension of limbs and falling; IV, continuous grade III seizures for longer than 30 min (status epilepticus).\nThe results were expressed as the mean±standard deviation (SD). The significance of difference in the epileptic data was analyzed using a one-way analysis of variance (ANOVA) followed by Fisher's post hoc test. Repeated-measures ANOVA were computed on the monitoring data and the significance of the difference among groups were evaluated by Fisher's post hoc test.\nAll groups were subjected to kainic acid.\nThe induction of seizures in rats with kainic acid was determined as either yes seizures (1) or no seizures (0)."}, "primate": {"test_system": "primate", "assay": "Acute primate seizure models", "conditions": "in vivo", "from_the_text": "FIG. 13 depicts epileptiform spikes and bursts generated using software for the automatic quantification epileptiform activity. FIG. 13A depicts after-discharge activity that was elicited by 4 seconds of electrical stimulation to primate sensory cortex. The software developed by Haglund and Hochman (2007) finds the envelope around a burst of spikes and calculates the duration of the burst, the number of spikes within the burst, and the average spike amplitude of all spikes comprising the burst.\nFIG. 13B depicts a typical spike generated by an acute bicuculline focus in primate motor cortex. The bicuculline model generates epileptiform activity that is similar to spontaneous interictal spiking in human subjects. Analysis of the data by the software identifies the time of occurrence of each spike and its peak-to-peak amplitude. This software can automatically process entire data sets consisting of hours of recorded data from multiple traces and generate an output of the data. Statistical analysis of data sets from multiple experiments can then be used to analyze the effects of various treatments (e.g., compounds that suppress epliptiform activity). See Haglund and Hochman (2007) “Imaging of Intrinsic Optical Signals in Primate Cortex during Epileptiform Activity.” Epilepsia 48(Suppl. 4): 65-74; See also Haglund and Hochman (Feb. 23, 2005) J. Neurophysiol. 94: 907-918."}, "Male CD-1 mice": {"test_system": "Male CD-1 mice", "assay": "Chung (SNL) neuropathic pain study in mice", "type": "in vivo, mouse", "conditions": "for Other overt toxicity: in vivo, ip; for Reversal of tactile hypersensitivity: mice, i.p., SNL", "from_the_text": "Male CD-1 mice (25-35 g, Charles River) were used for all studies. Mice were housed in groups of five in Plexiglas chambers with food and water available ad libitum. All animals were maintained on a 12 hr light/dark cycle (lights on at 7:00 AM) in a temperature- and humidity-controlled animal colony. The health status of the animals used in this study was examined on arrival. Only animals in good health were acclimatized to laboratory conditions and used in the study. The acclimation period to the vivarium was a minimum of 7 days. All animal experiments were performed under an approved protocol in accordance with institutional guidelines and in accordance with the Guide for the Care and Use of Laboratory Animals as adopted and promulgated by the National Institutes of Health.\nNTP has provided adequate amounts of NTP-2014 and NTP-2026 along with detailed instructions for preparing injection solutions. Gabapentin (Gallipot, St. Paul, Minn.) was dissolved in physiological saline. Injections were made using a 1-mL syringe with a 30-gauge needle at a volume of 10 ml/kg body weight. Animal body weights were measured prior to surgery and then on the morning of Day 7 (post-SNL testing). For i.p. drug administration, each mouse was firmly grasped by the nape of the neck and the tail was tucked between the last two fingers and palm of the technician's hand. The back of the mouse iwasarched slightly backwards exposing the abdominal region. The needle was inserted through the skin and abdominal musculature into the peritoneal cavity just off of the midline. Mice are immediately returned to the testing cage until behavioral testing.\nNTP2026 (56, 100 and 180 mg/kg, i.p.); NTP 2014 (32, 56 and 100 mg/kg, i.p.); Gabapentin (100 mg/kg, i.p.); Vehicle Control (10% TPGS in benzoate buffer, i.p.).\nSNL surgeries were performed based on the procedures described for rats (Kim and Chung, 1992) and modified for mice (Wang et al., 2001). Anesthesia was maintained with 0.5% halothane in O2 and body temperature was maintained using a heated water blanket. After surgical preparation of the mice, a 1-cm paraspinal incision was made at the level L4-S2. The L5 and L6 spinal nerves were exposed and tightly ligated using a 4-0 silk suture. The ligation was made distal to the dorsal root ganglion but before the fibers joined the sciatic nerve. The incisions were then closed, and animals are allowed to recover. […] Mechanical thresholds were determined by measuring the paw withdrawal threshold to probing with a series of calibrated von Frey filaments as described below.\nNon-noxious sensory thresholds of the mice were determined by paw withdrawal […] to probing with a series of calibrated (0.02-2.34 gm on a logarithmic scale) von Frey filaments (“up and down” method) according to Chaplan et al. (1994) and analyzed using a Dixon (1980) nonparametric test. Results are expressed as the mean withdrawal thresholds. Baseline latencies/thresholds were determined prior to surgery, on the morning of Day 7, and then between 20-60 minutes post dosing with the test drugs. The post-drug time corresponds to the time of maximal activity for these compounds in the tail-flick assay."}, "[1]": {"conditions": "KA 15 mg/kg i.p., 20 μmoles/kg IP"}, "[2]": {"conditions": "KA 15 mg/kg i.p., 20 μmoles/kg IP, 2 hours"}, "[3]": {"conditions": "group 11, bumetanide 100 mg/kg (274 umoles/kg)"}, "[4]": {"conditions": "20 μmoles/kg IP, vs DMSO control"}},
  "note": "“Also recorded” adds a separate entry of the source. Read-outs that look alike come from different tables or passages of the source.",
  "data": [
    {"smiles": "CCCCNc1cc(C(=O)O)cc(S(N)(=O)=O)c1Oc1ccccc1", "note": "[Bumetanide, reference compound]", "values": [
      {"measurement": "Seizures Severity Mean ± SD (grade 0 to IV)", "setting": "Sprague-Dawley rats; [1]", "value": "0.7000 ± 0.8233"},
      {"measurement": "Seizures Mean ± SD (1 = yes, 0 = no)", "setting": "Sprague-Dawley rats; [2]", "value": "0.5000 ± 0.5270"},
      {"measurement": "change in vivo at 20 µmol/kg", "setting": "Sprague-Dawley rats; 20 μmoles/kg IP, vs DMSO control, read-out: Percent reduction in Seizures", "value": -44.4, "unit": "%"},
      {"measurement": "change in vivo at 20 µmol/kg", "setting": "Sprague-Dawley rats; 20 μmoles/kg IP, vs DMSO control, read-out: Percent reduction in Seizures Severity", "value": -70.8, "unit": "%"},
      {"measurement": "change in vivo at 100 mg/kg", "setting": "Sprague-Dawley rats; read-out: Percent reduction in Seizures", "value": -88.9, "unit": "%"},
      {"measurement": "change in vivo at 100 mg/kg", "setting": "Sprague-Dawley rats; read-out: Percent reduction in Seizures Severity", "value": -95.8, "unit": "%"},
      {"measurement": "Reduction in seizure score / severity", "setting": "Sprague-Dawley rats", "value": "seizures (S); 96%"},
      {"measurement": "Reduction in seizure score / severity", "setting": "Sprague-Dawley rats; listed as bumetanide", "value": 95.8, "unit": "%"},
      {"measurement": "Reduction in seizures", "setting": "Sprague-Dawley rats; bumetanide 100 mg/kg i.p., listed as bumetanide", "value": 88.9, "unit": "%"},
      {"measurement": "Seizures Mean ± SD (1 = yes, 0 = no)", "setting": "Sprague-Dawley rats; [3]", "value": "0.1000 ± 0.3162"},
      {"measurement": "Seizures Severity Mean ± SD (grade 0 to IV)", "setting": "Sprague-Dawley rats; [3]", "value": "0.1000 ± 0.3162"},
      {"measurement": "Reduction in seizure severity / seizure score", "setting": "Sprague-Dawley rats", "value": "seizures (NS); 71%"},
      {"measurement": "Reduction in seizures / seizure activity", "setting": "Sprague-Dawley rats", "value": 44, "unit": "% reduction in"},
      {"measurement": "Reduction in seizure severity / seizure score", "setting": "Sprague-Dawley rats; listed as bumetanide", "value": 70.8, "unit": "%"},
      {"measurement": "Suppression of epileptiform activity", "setting": "primate", "value": "significantly more than furosemide"}
    ]},
    {"smiles": "CCCCN(CCCC)c1cc(C(=O)O)cc(S(N)(=O)=O)c1Oc1ccccc1", "note": "[NTP-2014, 3-Aminosulfonyl-5-N,N-dibutylamino-4-phenoxybenzoic acid]", "values": [
      {"measurement": "Other overt toxicity", "setting": "Male CD-1 mice; male, CD-1, mouse", "value": "high dose group (180 mg/kg). No other"},
      {"measurement": "Reversal of tactile hypersensitivity", "setting": "Male CD-1 mice", "value": "dose-dependent reversal of tactile hypersensitivity; also recorded: effective analgesic effects; also recorded: Dose-dependent, very significant"},
      {"measurement": "Other overt toxicity", "setting": "Male CD-1 mice; mouse", "value": "No other overt toxicity"}
    ]},
    {"smiles": "CCCCNc1cc(C(=O)NN2CCOCC2)cc(S(N)(=O)=O)c1Oc1ccccc1", "note": "[NTP-2024, N-Morpholinyl 3-Aminosulfonyl-5-N-butylamino-4-phenoxybenzamide]", "values": [
      {"measurement": "Percent reduction in Seizures", "setting": "Sprague-Dawley rats; [4]", "value": "−88.9", "unit": "%"},
      {"measurement": "Percent reduction in Seizures Severity", "setting": "Sprague-Dawley rats; [4]", "value": "−95.8", "unit": "%"},
      {"measurement": "Seizures Severity Mean ± SD (grade 0 to IV)", "setting": "Sprague-Dawley rats; [1]", "value": "0.1000 ± 0.3162"},
      {"measurement": "Seizures Mean ± SD (1 = yes, 0 = no)", "setting": "Sprague-Dawley rats; [2]", "value": "0.1000 ± 0.3162"},
      {"measurement": "Reduction in seizure severity / seizure score", "setting": "Sprague-Dawley rats", "value": 96, "unit": "% reduction in"},
      {"measurement": "Reduction in seizures / seizure activity", "setting": "Sprague-Dawley rats", "value": 89, "unit": "% reduction in"},
      {"measurement": "Suppression of epileptiform activity", "setting": "primate", "value": "efficacious in suppressing epileptiform activity"}
    ]},
    {"smiles": "CCCCNc1cc(C(=O)N(C)CCCN(C)C)cc(S(N)(=O)=O)c1Oc1ccccc1", "note": "[NTP-2026, N-(3-(Dimethylamino)propyl)-N-methyl 3-Aminosulfonyl-5-N-butylamino-4-phenoxybenzamide]", "values": [
      {"measurement": "Reversal of tactile hypersensitivity", "setting": "Male CD-1 mice", "value": "dose-dependent reversal of tactile hypersensitivity; also recorded: Dose-dependent, significant reversal of"}
    ]}
  ]
}
